Values after ≈ are worked out from the molar mass of the structure shown.
Assays:
Type in all cases: functional
[1] = system: Streptococcus pneumoniae; test: Ratio of MBC to MIC against erythromycin-susceptible Streptococcus pneumoniae ATCC 49619
[2] = system: Moraxella catarrhalis; test: Ratio of MBC to MIC against erythromycin-susceptible Moraxella catarrhalis 11B366
[3] = system: Staphylococcus aureus; test: Bactericidal activity against methicillin-resistant Staphylococcus aureus PU20 expressing constitutive ermC incubated for 20 hrs followed by sub-culturing for 24 hrs in absence of compound
[4] = system: Streptococcus pyogenes; test: Ratio of MBC to MIC against Streptococcus pyogenes 12-207 expressing mef
[5] = system: Streptococcus pneumoniae; test: Antimicrobial activity against erythromycin-susceptible Streptococcus pneumoniae ATCC 49619 incubated for 20 to 24 hrs by two-fold microbroth dilution method
[6] = system: Staphylococcus aureus; test: Bactericidal activity against methicillin-resistant Staphylococcus aureus PU32 expressing inducible ermA incubated for 20 hrs followed by sub-culturing for 24 hrs in absence of compound
[7] = system: Streptococcus pyogenes; test: Bactericidal activity against Streptococcus pyogenes 01-968 expressing inducible ermA incubated for 20 to 24 hrs followed by sub-culturing for 24 hrs in absence of compound
[8] = system: Streptococcus pneumoniae; test: Bactericidal activity against penicillin-susceptible Streptococcus pneumoniae PU09 incubated for 20 to 24 hrs followed by sub-culturing for 24 hrs in absence of compound
[9] = system: Streptococcus pyogenes; test: Antimicrobial activity against Streptococcus pyogenes 12-207 expressing mef incubated for 20 to 24 hrs by two-fold microbroth dilution method
[10] = system: Streptococcus pneumoniae; test: Ratio of MBC to MIC against penicillin-susceptible Streptococcus pneumoniae PU09
[11] = system: Streptococcus pyogenes; test: Ratio of MBC to MIC against Streptococcus pyogenes 01-968 expressing inducible ermA
[12] = system: Streptococcus pneumoniae; test: Bactericidal activity against erythromycin-susceptible Streptococcus pneumoniae ATCC 49619 incubated for 20 to 24 hrs followed by sub-culturing for 24 hrs in absence of compound
[13] = system: Moraxella catarrhalis; test: Antimicrobial activity against erythromycin-susceptible Moraxella catarrhalis 11B366 incubated for 20 hrs by two-fold microbroth dilution method; conditions: 11B366, 20 h
[14] = system: Streptococcus pneumoniae; test: Antimicrobial activity against penicillin-susceptible Streptococcus pneumoniae PU09 incubated for 20 to 24 hrs by two-fold microbroth dilution method
[15] = system: Streptococcus pyogenes; test: Antimicrobial activity against Streptococcus pyogenes 01-968 expressing inducible ermA incubated for 20 to 24 hrs by two-fold microbroth dilution method
[16] = system: Haemophilus influenzae; test: Ratio of MBC to MIC against azithromycin-susceptible and ampicillin-resistant Haemophilus influenzae 11P037
[17] = system: Staphylococcus aureus; test: Ratio of MBC to MIC against methicillin-resistant Staphylococcus aureus PU32 expressing inducible ermA
[18] = system: Staphylococcus aureus; test: Antimicrobial activity against methicillin-resistant Staphylococcus aureus PU32 expressing inducible ermA incubated for 20 hrs by two-fold microbroth dilution method; conditions: PU32, 20 h
[19] = system: Staphylococcus aureus; test: Ratio of MBC to MIC against methicillin-resistant Staphylococcus aureus PU20 expressing constitutive ermC
[20] = system: Streptococcus pyogenes; test: Bactericidal activity against Streptococcus pyogenes 12-207 expressing mef incubated for 20 to 24 hrs followed by sub-culturing for 24 hrs in absence of compound
[21] = system: Moraxella catarrhalis; test: Bactericidal activity against erythromycin-susceptible Moraxella catarrhalis 11B366 incubated for 20 hrs followed by sub-culturing for 24 hrs in absence of compound
[22] = system: Staphylococcus aureus; test: Antimicrobial activity against methicillin-resistant Staphylococcus aureus PU20 expressing constitutive ermC incubated for 20 hrs by two-fold microbroth dilution method; conditions: PU20, 20 h
[23] = system: Haemophilus influenzae; test: Bactericidal activity against azithromycin-susceptible and ampicillin-resistant Haemophilus influenzae 11P037 incubated for 20 to 24 hrs followed by sub-culturing for 24 hrs in absence of compound
[24] = system: Haemophilus influenzae; test: Antimicrobial activity against azithromycin-susceptible and ampicillin-resistant Haemophilus influenzae 11P037 incubated for 20 to 24 hrs by two-fold microbroth dilution method
[25] = system: Streptococcus pneumoniae; test: Antimicrobial activity against Streptococcus pneumoniae 07P390 expressing constitutive ermB incubated for 20 to 24 hrs by two-fold microbroth dilution method

SMILES: CC[C@H]1OC(=O)[C@H](C)[C@@H](OC(=O)Cc2ccccn2)[C@H](C)[C@@H](O[C@@H]2O[C@H](C)C[C@H](N(C)C)[C@H]2O)[C@](C)(OC)C[C@@H](C)/C(=N\OCC#Cc2cncc(C(N)=O)c2)[C@H](C)[C@H]2OC(=O)O[C@@]21C
- Ratio [1]: 1
- Ratio [2]: 2
- MBC [3]: > 256 µg/mL
- Ratio [4]: >8
- MIC [5]: 0.016 µg/mL (≈ 0.0176 µM)
- MBC [6]: > 4 µg/mL
- MBC [7]: 0.062 µg/mL (≈ 0.0683 µM)
- MBC [8]: 1 µg/mL (≈ 1.1 µM)
- MIC [9]: 0.016 µg/mL (≈ 0.0176 µM)
- Ratio [10]: 2
- Ratio [11]: 2
- MBC [12]: 0.016 µg/mL (≈ 0.0176 µM)
- MIC [13]: 1 µg/mL (≈ 1.1 µM)
- MIC [14]: 0.5 µg/mL (≈ 0.551 µM)
- MIC [15]: 0.031 µg/mL (≈ 0.0341 µM)
- Ratio [16]: 8
- Ratio [17]: >8
- MIC [18]: 0.5 µg/mL (≈ 0.551 µM)
- Ratio [19]: >2
- MBC [20]: > 0.125 µg/mL
- MBC [21]: 2 µg/mL (≈ 2.2 µM)
- MIC [22]: 256 µg/mL (≈ 282 µM)
- MBC [23]: 64 µg/mL (≈ 70.5 µM)
- MIC [24]: 8 µg/mL (≈ 8.81 µM)

SMILES: CC[C@H]1OC(=O)[C@H](C)[C@@H](OC(=O)Cc2ccccn2)[C@H](C)[C@@H](O[C@@H]2O[C@H](C)C[C@H](N(C)C)[C@H]2O)[C@](C)(OC)C[C@@H](C)/C(=N\OCC#Cc2cccnc2)[C@H](C)[C@H]2OC(=O)O[C@@]21C
- Ratio [1]: >=1
- Ratio [2]: 2
- MBC [3]: 128 µg/mL (≈ 148 µM)
- Ratio [4]: >8
- MIC [5]: ≤ 0.008 µg/mL
- MBC [6]: > 8 µg/mL
- MBC [7]: 0.25 µg/mL (≈ 0.289 µM)
- MBC [8]: 1 µg/mL (≈ 1.16 µM)
- MIC [9]: 0.125 µg/mL (≈ 0.145 µM)
- Ratio [10]: 2
- Ratio [11]: 1
- MBC [12]: 0.008 µg/mL (≈ 0.00925 µM)
- MIC [13]: 2 µg/mL (≈ 2.31 µM)
- MIC [14]: 0.5 µg/mL (≈ 0.578 µM)
- MIC [15]: 0.25 µg/mL (≈ 0.289 µM)
- Ratio [16]: >8
- Ratio [17]: >8
- MIC [18]: 1 µg/mL (≈ 1.16 µM)
- Ratio [19]: 1
- MBC [20]: > 1 µg/mL
- MBC [21]: 4 µg/mL (≈ 4.62 µM)
- MIC [22]: 128 µg/mL (≈ 148 µM)
- MBC [23]: > 64 µg/mL
- MIC [24]: 8 µg/mL (≈ 9.25 µM)

SMILES: CC[C@H]1OC(=O)[C@H](C)[C@@H](O[C@H]2C[C@@](C)(OC)[C@@H](O)[C@H](C)O2)[C@H](C)[C@@H](O[C@@H]2O[C@H](C)C[C@H](N(C)C)[C@H]2O)[C@](C)(OC)C[C@@H](C)C(=O)[C@H](C)[C@@H](O)[C@]1(C)O [CLARITHROMYCIN]
- Ratio [2]: 2
- Ratio [4]: 2
- MIC [5]: 0.062 µg/mL (≈ 0.0829 µM)
- MBC [6]: > 16 µg/mL
- MBC [7]: > 8 µg/mL
- MIC [9]: 16 µg/mL (≈ 21.4 µM)
- Ratio [11]: >8
- MIC [13]: 0.125 µg/mL (≈ 0.167 µM)
- MIC [14]: 2 µg/mL (≈ 2.67 µM)
- MIC [15]: 4 µg/mL (≈ 5.35 µM)
- Ratio [16]: 8
- Ratio [17]: >2
- MIC [18]: 32 µg/mL (≈ 42.8 µM)
- MBC [20]: 32 µg/mL (≈ 42.8 µM)
- MBC [21]: 0.25 µg/mL (≈ 0.334 µM)
- MIC [22]: > 64 µg/mL
- MBC [23]: 8 µg/mL (≈ 10.7 µM)
- MIC [24]: 4 µg/mL (≈ 5.35 µM)
- MIC [25]: > 64 µg/mL

SMILES: CC[C@H]1OC(=O)[C@H](C)[C@@H](OC(=O)Cc2ccccn2)[C@H](C)[C@@H](O[C@@H]2O[C@H](C)C[C@H](N(C)C)[C@H]2O)[C@](C)(OC)C[C@@H](C)/C(=N\OCC#Cc2cnc(N)nc2)[C@H](C)[C@H]2OC(=O)O[C@@]21C
- Ratio [1]: 2
- Ratio [2]: 2
- MBC [3]: 256 µg/mL (≈ 291 µM)
- Ratio [4]: >8
- MIC [5]: 0.016 µg/mL (≈ 0.0182 µM)
- MBC [6]: 8 µg/mL (≈ 9.08 µM)
- MBC [7]: 0.5 µg/mL (≈ 0.568 µM)
- MBC [8]: 1 µg/mL (≈ 1.14 µM)
- MIC [9]: 0.25 µg/mL (≈ 0.284 µM)
- Ratio [10]: 2
- Ratio [11]: 2
- MBC [12]: 0.031 µg/mL (≈ 0.0352 µM)
- MIC [13]: 2 µg/mL (≈ 2.27 µM)
- MIC [14]: 0.5 µg/mL (≈ 0.568 µM)
- MIC [15]: 0.25 µg/mL (≈ 0.284 µM)
- Ratio [16]: 8
- Ratio [17]: 8
- MIC [18]: 1 µg/mL (≈ 1.14 µM)
- Ratio [19]: 2
- MBC [20]: > 2 µg/mL
- MBC [21]: 4 µg/mL (≈ 4.54 µM)
- MIC [22]: 128 µg/mL (≈ 145 µM)
- MBC [23]: 64 µg/mL (≈ 72.6 µM)
- MIC [24]: 8 µg/mL (≈ 9.08 µM)

SMILES: CC[C@H]1OC(=O)[C@H](C)[C@@H](OC(=O)Cc2ccccn2)[C@H](C)[C@@H](O[C@@H]2O[C@H](C)C[C@H](N(C)C)[C@H]2O)[C@](C)(OC)C[C@@H](C)/C(=N\OCC#Cc2ccc3nccnc3c2)[C@H](C)[C@H]2OC(=O)O[C@@]21C
- Ratio [1]: >=1
- Ratio [2]: 1
- MBC [3]: 128 µg/mL (≈ 140 µM)
- Ratio [4]: >8
- MIC [5]: ≤ 0.008 µg/mL
- MBC [6]: > 8 µg/mL
- MBC [7]: 0.25 µg/mL (≈ 0.273 µM)
- MBC [8]: 1 µg/mL (≈ 1.09 µM)
- MIC [9]: 0.062 µg/mL (≈ 0.0677 µM)
- Ratio [10]: 2
- Ratio [11]: 8
- MBC [12]: 0.008 µg/mL (≈ 0.00873 µM)
- MIC [13]: 2 µg/mL (≈ 2.18 µM)
- MIC [14]: 0.5 µg/mL (≈ 0.546 µM)
- MIC [15]: 0.031 µg/mL (≈ 0.0338 µM)
- Ratio [16]: >8
- Ratio [17]: >8
- MIC [18]: 1 µg/mL (≈ 1.09 µM)
- Ratio [19]: 1
- MBC [20]: > 0.5 µg/mL
- MBC [21]: 2 µg/mL (≈ 2.18 µM)
- MIC [22]: 128 µg/mL (≈ 140 µM)
- MBC [23]: > 128 µg/mL
- MIC [24]: 16 µg/mL (≈ 17.5 µM)
